Results taken from US9451768B2, “Biocidal compositions and methods of use” (priority 2009, dated 2016).

Key:
[1] = test system: oil field isolated anaerobic SRB consortium; experiment: MBC against anaerobic SRB consortium, 40° C., 24 hour (Example 1); assay type: cell-based, anaerobic sulfate-reducing bacteria (SRB)
Description: (§1) The synergy indexes reported in the following examples are calculated using the following equation: Synergy Index=Ca/CA+Cb/CB
(§2) Various methods known to those skilled in the art can be used for evaluating biocidal efficacy. In the examples below, aliquots of the treated samples are removed at predetermined time points and the concentration required to achieve a certain level or complete bacterial kill is determined by culture-based methods including serial dilution. In some examples, the method is based or adapted (e.g., for high temperature testing or for the presence of sulfide) from the methodology described in international application PCT/US08/075,755, filed Sep. 10, 2008, which is incorporated herein by reference.
Inside an anaerobic chamber, a deaerated sterile salt solution (3.1183 g of NaCl, 1.3082 mg of NaHCO3, 47.70 mg of KCl, 72.00 mg of CaCl2, 54.49 mg of MgSO4, 172.28 mg of Na2SO4, 43.92 mg of Na2CO3 in 1 L water) is contaminated with an oil field isolated anaerobic SRB consortium at final bacterial concentrations of 10^6-10^7 CFU/mL. Aliquots of this contaminated water are then treated with biocide solution (single or in combination) at various concentrations.

[2] = test system: oil field isolated anaerobic SRB consortium; experiment: Anaerobic bacteria under sulfide-rich and multiple challenge conditions (Example 4); assay type: cell-based, anaerobic sulfate-reducing bacteria (SRB); settings: room temperature, daily challenge with SRB and 10 ppm sulfide ion
Description: as §1
as §2, with “10, 2008, which is incorporated herein by reference.” left out
Inside an anaerobic chamber, biocide solutions of DBNPA, CTAC, and DBNPA/CTAC combinations at various concentrations are prepared in a salt solution (3.1183 g of NaCl, 1.3082 mg of NaHCO3, 47.70 mg of KCl, 72.00 mg of CaCl2, 54.49 mg of MgSO4, 172.28 mg of Na2SO4, 43.92 mg of Na2CO3 in 1 L water). […] The viable bacteria left in the mixtures is determined at different incubation times up to 7 days, using a serial dilution method. Bacterial log reduction is then calculated. The biocidal efficacy is determined by selecting the lowest biocide concentration required to achieve at least a 99.9% bacterial reduction for all three of the following time points: 2 hour, 1 day, and 7 days. Synergy index is then calculated.

[3] = test system: Psedomonas aeruginosa ATCC 10145 and Staphylococcus aureus ATCC 6538; experiment: MBC against aerobic bacteria, 37° C., 24 hour (Example 2); assay type: cell-based
Description: as §1, §2
A sterile NaCl solution (0.85%) is contaminated with Psedomonas aeruginosa ATCC 10145 and Staphylococcus aureus ATCC 6538 at a final bacterial concentration of ˜10^6 CFU/ml. Aliquots of this contaminated water are then treated with biocide solution (single or in combination) at various concentrations.

[4] = test system: mixed bacteria consortium (Pseudomonas aeruginosa ATCC 10145, Pseudomonas aeruginosa ATCC 15422, Enterobacter aerogenes ATCC 13048, Escherichia coli ATCC …); experiment: Ternary DBNPA, CTAC and bronopol combination, re-challenge test against mixed bacteria consortium (Example 6); assay type: cell-based, mixed aerobic bacteria; settings: for Dose required for >4 log10 bacterial reduction vs. control, CTAC: CTAC alone or CTAC part of DBNPA:bnpd:CTAC combination; for Dose required for >4 log10 bacterial reduction vs. control, bnpd: bnpd alone or bnpd part of DBNPA:bnpd:CTAC combination; for Dose required for >4 log10 bacterial reduction vs. control, DBNPA: DBNPA alone or DBNPA part of DBNPA:bnpd:CTAC combination
Description: as §1, §2
(§3) DBNPA, bronopol, and CTAC are added to a sterile solution of synthetic surface water (CaCl2 0.2203 g, MgSO4 0.1847 g, NaHCO3 0.1848 g, deionized water 1 L) both alone and in various combinations. An initial inoculum of a mixed bacteria consortium (Pseudomonas aeruginosa ATCC 10145, Pseudomonas aeruginosa ATCC 15422, Enterobacter aerogenes ATCC 13048, Escherichia coli ATCC 11229, Klebsiella pneumoniae ATCC 8308, Staphylococcus aureus ATCC 6538, Salmonella choleraesuis ATCC 10708) is added to each biocidal solution at a final concentration of 5×10^6 CFU/mL. After 2, 6 and 13 days, the biocidal solutions are re-challenged with the same bacteria consortium to a final concentration of 5×10^4 CFU/mL of additional bacteria. All treatments are incubated at ambient temperatures. The results are shown in Table 10 which reports the biocide concentrations required to achieve a ≧4 log10 kill reduction in microorganisms.

[5] = test system: mixed bacteria consortium (Pseudomonas aeruginosa ATCC 10145, Pseudomonas aeruginosa ATCC 15422, Enterobacter aerogenes ATCC 13048, Escherichia coli ATCC …); experiment: Re-challenge test against aerobic mixed bacteria consortium (Example 3); assay type: cell-based; settings: ambient temperature; for Dose required for ≧4 log10 bacteria reduction (ppm), CTAC: CTAC alone or CTAC part of DBNPA/CTAC combination; for Dose required for ≧4 log10 bacteria reduction (ppm), DBNPA: DBNPA alone or DBNPA part of DBNPA/CTAC combination
Description: as §1, §2
as §3, with “DBNPA and” for “DBNPA, bronopol, and”, “CTAC is” for “CTAC are”, “g, DI” for “g, deionized”, “Table 7” for “Table 10”

[6] = test system: oil field isolated anaerobic SRB consortium; experiment: Anaerobic bacteria under high temperature, sulfide-rich and re-challenge conditions (Example 5); assay type: cell-based, anaerobic sulfate-reducing bacteria (SRB); settings: 80° C., daily challenge with SRB and 10 ppm sulfide ion
Description: as §1, §2
Inside an anaerobic chamber, biocide solutions of DBNPA, CTAC, and DBNPA/CTAC combinations at various concentrations are prepared in a salt solution (3.1183 g of NaCl, 1.3082 mg of NaHCO3, 47.70 mg of KCl, 72.00 mg of CaCl2, 54.49 mg of MgSO4, 172.28 mg of Na2SO4, 43.92 mg of Na2CO3 in 1 L water). […] After heating at 80 C for 2 hours, biocidal efficacy is evaluated against the field SRB consortium at 40° C. for 2 h. The same samples, after heating for 1 day to 7 days at 80 C, are evaluated against the field SRB consortium at 40 C for 24 h. […]

[7] = CTAC alone or CTAC part of DBNPA/CTAC combination
[8] = Day 3 after initial inoculation
[9] = Day 27 after initial inoculation
[10] = Day 20 after initial inoculation
[11] = HHT alone or HHT part of DBNPA/HHT combination
[12] = tris nitro alone or tris nitro part of DBNPA/tris nitro combination
[13] = DBNPA alone or DBNPA part of DBNPA/CTAC combination
[14] = DBNPA alone or DBNPA part of DBNPA/HHT combination
[15] = DBNPA alone or DBNPA part of DBNPA/tris nitro combination

Compound: ClC=CC[N+]12CN3CN(CN(C3)C1)C2 [CTAC, 1-(3-chloroallyl)-3,5,7-triaza-1-azoniaadamantane]
- Dosage required for complete bacterial reduction (ppm), CTAC [1, 7]: 87.5 ppm
- Lowest biocide concentration required for ≧99.9% bacterial reduction for 2 h, 1 day, and 7 days (ppm), CTAC [2, 7]: >360.0 ppm
- Dosage required for complete bacterial reduction (ppm), CTAC [3, 7]: >159 ppm
- Dose required for >4 log10 bacterial reduction vs. control, CTAC [4, 8]: >750
- Dose required for >4 log10 bacterial reduction vs. control, CTAC [4, 9]: >750
- Dose required for ≧4 log10 bacteria reduction (ppm), CTAC [5, 8]: >750 ppm
- Dose required for ≧4 log10 bacteria reduction (ppm), CTAC [5, 10]: >750 ppm
- Lowest biocide concentration required for ≧99.9% bacterial reduction for 2 h, 1 day, and 7 days (ppm), CTAC [6, 7]: 180 ppm

Compound: O=[N+]([O-])C(Br)(CO)CO [bnpd, 2-bromo-2-nitropropane-1,3-diol]
- Dose required for >4 log10 bacterial reduction vs. control, bnpd [4, 8]: 32
- Dose required for >4 log10 bacterial reduction vs. control, bnpd [4, 9]: >200

Compound: OCCN1CN(CCO)CN(CCO)C1 [HHT, hexahydro-1,3,5-tris(2-hydroxyethyl)-s-triazine]
- Dosage required for complete bacterial reduction (ppm), HHT [1, 11]: 113.8 ppm
- Dosage required for complete bacterial reduction (ppm), HHT [3, 11]: 94.2 ppm

Compound: O=[N+]([O-])C(CO)(CO)CO [tris nitro, tris(hydroxymethyl)nitromethane]
- Dosage required for complete bacterial reduction (ppm), tris nitro [1, 12]: 29.6 ppm
- Dosage required for complete bacterial reduction (ppm), tris nitro [3, 12]: 104.6 ppm

Compound: N#CC(Br)(Br)C(N)=O [DBNPA, 2,2-dibromo-3-nitrilopropionamide]
- Dosage required for complete bacterial reduction (ppm), DBNPA [1, 13]: 9.1 ppm
- Dosage required for complete bacterial reduction (ppm), DBNPA [1, 14]: 7.0 ppm
- Dosage required for complete bacterial reduction (ppm), DBNPA [1, 15]: 8.9 ppm
- Lowest biocide concentration required for ≧99.9% bacterial reduction for 2 h, 1 day, and 7 days (ppm), DBNPA [2, 13]: 60.0 ppm
- Dosage required for complete bacterial reduction (ppm), DBNPA [3, 13]: 8.9 ppm
- Dosage required for complete bacterial reduction (ppm), DBNPA [3, 14]: 8.9 ppm
- Dosage required for complete bacterial reduction (ppm), DBNPA [3, 15]: 9.9 ppm
- Dose required for >4 log10 bacterial reduction vs. control, DBNPA [4, 8]: <12
- Dose required for >4 log10 bacterial reduction vs. control, DBNPA [4, 9]: >75
- Dose required for ≧4 log10 bacteria reduction (ppm), DBNPA [5, 8]: >167 ppm
- Dose required for ≧4 log10 bacteria reduction (ppm), DBNPA [5, 10]: >250 ppm
- Lowest biocide concentration required for ≧99.9% bacterial reduction for 2 h, 1 day, and 7 days (ppm), DBNPA [6, 13]: >120 ppm
